Test results: patent publication US12622948B2 (SUN PHARMACEUTICAL INDUSTRIES LIMITED, priority 2020, dated 2026)
Marks after values point to notes of the source that are not given here.

What was measured:
[1] = test system: type 2 diabetic mouse (db/db) model; experiment: Efficacy study in db/db mice at 3 and 20 nM/kg dose (blood glucose, body weight, food intake); assay type: in vivo
Protocol: The effect of compounds of present invention on blood glucose, food intake and body weight was studied on mice. This study was performed in type 2 diabetic mouse (db/db) model. […] Baseline blood glucose was measured from all the animals. All animals were administered with test items subcutaneously. […] Delta blood glucose (mM) was calculated. Body weight changes and cumulative food consumption was measured at 72 hr post treatment.

[2] = test system: type 2 diabetic mouse (db/db) model; experiment: Efficacy study in db/db mice at 10 nM/kg dose (blood glucose, body weight, food intake); assay type: in vivo
Protocol: The effect of compounds of present invention on blood glucose, food intake and body weight was studied in mice. This study was performed in a type 2 diabetic mouse (db/db) model. […] Baseline blood glucose was measured from all the animals. […] All the animals were administered with test items subcutaneously. […] Delta blood glucose (mM) was calculated.

[3] = Study 1, db/db mice, 10 nM/kg s.c.
[4] = Study 1, db/db mice, 10 nM/kg s.c., 48 hr
[5] = Study 1, db/db mice, 10 nM/kg s.c., 96 hr
[6] = Study 2, db/db mice, 10 nM/kg s.c. single dose
[7] = Study 2, db/db mice, 10 nM/kg s.c. single dose, 48 hr
[8] = Study 2, db/db mice, 10 nM/kg s.c. single dose, 96 hr
[9] = db/db mice, 10 nM/kg s.c., vs diabetic control

CCC[C@H](NC(=O)[C@@H](NC(=O)[C@H](CO)NC(=O)[C@H](Cc1ccc(O)cc1)NC(=O)[C@H](CC(=O)O)NC(=O)[C@H](CO)NC(=O)[C@@H](NC(=O)[C@H](Cc1ccccc1)NC(=O)[C@@H](NC(=O)CNC(=O)[C@H](CCC(=O)O)NC(=O)C(C)(C)NC(=O)[C@@H](N)Cc1ccc(O)cc1)[C@@H](C)O)[C@@H](C)O)[C@@H](C)CC)C(=O)N[C@@H](CC(C)C)C(=O)N[C@@H](CC(=O)O)C(=O)N[C@@H](CCCCN)C(=O)N[C@H](C(=O)N[C@@H](C)C(=O)N[C@@H](CCC(N)=O)C(=O)N[C@@H](CCCCNC(=O)COCCOCCNC(=O)C(C)(C)NC(=O)CC[C@H](NC(=O)CCCCCCCCCCCCCCCCCCC(=O)O)C(=O)O)C(=O)N[C@@H](C)C(=O)N[C@@H](Cc1ccccc1)C(=O)N[C@H](C(=O)N[C@@H](CCC(N)=O)C(=O)N[C@@H](Cc1c[nH]c2ccccc12)C(=O)N[C@@H](CC(C)C)C(=O)N[C@H](C(=O)N[C@@H](C)C(=O)NCC(=O)NCC(=O)N1CCC[C@H]1C(=O)N[C@@H](CO)C(=O)N[C@@H](CO)C(=O)NCC(=O)N[C@@H](C)C(=O)N1CCC[C@H]1C(=O)N1CCC[C@H]1C(=O)N1CCC[C@H]1C(=O)N[C@@H](CO)C(N)=O)[C@@H](C)CC)C(C)C)[C@@H](C)CC [Compound 1]
glucose lowering effect ([1]; 3 nM/kg and 20 nM/kg s.c.): dose dependent improvement in glucose lowering effect upto 72 hours
glucose lowering effect compared with tirzepatide ([1]; 3 nM/kg and 20 nM/kg s.c.): superior to tirzepatide at similar dosage
Cumulative Food Intake (g), 0-72 hr, Mean ([1]; 3 nM/kg s.c.): 10.2*** g
Delta Blood Glucose (mM) Mean ([1]; 3 nM/kg s.c., 0 hr (baseline)): 0.0 mM
Delta Blood Glucose (mM) Mean ([1]; 3 nM/kg s.c., 4 hr): −8.9*** mM
Delta Blood Glucose (mM) Mean ([1]; 3 nM/kg s.c., 24 hr): −9.9*** mM
Delta Blood Glucose (mM) Mean ([1]; 3 nM/kg s.c., 48 hr): −5.8** mM
Body weight change (%) 72 hr vs. Baseline, Mean ([1]; 3 nM/kg s.c., 72 hr): −4.0*** %
Delta Blood Glucose (mM) Mean ([1]; 3 nM/kg s.c., 72 hr): -3.2 mM
Cumulative Food Intake (g), 0-72 hr, Mean ([1]; 20 nM/kg s.c.): 6.3*** g
Delta Blood Glucose (mM) Mean ([1]; 20 nM/kg s.c., 0 hr (baseline)): 0.0 mM
Delta Blood Glucose (mM) Mean ([1]; 20 nM/kg s.c., 4 hr): −13.7*** mM
Delta Blood Glucose (mM) Mean ([1]; 20 nM/kg s.c., 24 hr): −13.6*** mM
Delta Blood Glucose (mM) Mean ([1]; 20 nM/kg s.c., 48 hr): −14.0*** mM
Body weight change (%) 72 hr vs. Baseline, Mean ([1]; 20 nM/kg s.c., 72 hr): −6.2*** %
Delta Blood Glucose (mM) Mean ([1]; 20 nM/kg s.c., 72 hr): −7.9*** mM
effect on body weight ([1]; 3 and 20 nM/kg): significant, dose dependent and comparable to tirzepatide
effect on food intake ([1]; 3 and 20 nM/kg): significant, dose dependent and comparable to tirzepatide
Cumulative food Intake (g) 0-48 hr. vs. Baseline, Mean [2, 3]: 7.5*** g
Cumulative food Intake (g) 0-96 hr. vs. Baseline, Mean [2, 3]: 13.9*** g
Delta Blood Glucose (mM) Mean ([2]; Study 1, db/db mice, 10 nM/kg s.c., 0 hr (baseline)): 0 mM
Delta Blood Glucose (mM) Mean ([2]; Study 1, db/db mice, 10 nM/kg s.c., 4 hr): −12.7*** mM
Delta Blood Glucose (mM) Mean ([2]; Study 1, db/db mice, 10 nM/kg s.c., 8 hr): −12.0*** mM
Delta Blood Glucose (mM) Mean ([2]; Study 1, db/db mice, 10 nM/kg s.c., 12 hr): −10.5*** mM
Delta Blood Glucose (mM) Mean ([2]; Study 1, db/db mice, 10 nM/kg s.c., 24 hr): −15.5*** mM
Body Wt. Change (%) 48 hr. vs. Baseline, Mean [2, 4]: −5.1*** %
Delta Blood Glucose (mM) Mean [2, 4]: −6.7*** mM
Delta Blood Glucose (mM) Mean ([2]; Study 1, db/db mice, 10 nM/kg s.c., 72 hr): −4.3*** mM
Body Wt. Change (%) 96 hr. vs. Baseline, Mean [2, 5]: −4.2*** %
Delta Blood Glucose (mM) Mean [2, 5]: −2.2*** mM
Cumulative food Intake (g) 0-48 hr. vs. Baseline, Mean [2, 6]: 3.8*** g
Cumulative food Intake (g) 0-96 hr. vs. Baseline, Mean [2, 6]: 12.5*** g
Delta Blood Glucose (mM) Mean ([2]; Study 2, db/db mice, 10 nM/kg s.c. single dose, 0 hr (baseline)): 0 mM
Delta Blood Glucose (mM) Mean ([2]; Study 2, db/db mice, 10 nM/kg s.c. single dose, 4 hr): −10.0*** mM
Delta Blood Glucose (mM) Mean ([2]; Study 2, db/db mice, 10 nM/kg s.c. single dose, 8 hr): −13.5*** mM
Delta Blood Glucose (mM) Mean ([2]; Study 2, db/db mice, 10 nM/kg s.c. single dose, 12 hr): −12.3*** mM
Delta Blood Glucose (mM) Mean ([2]; Study 2, db/db mice, 10 nM/kg s.c. single dose, 24 hr): −11.5*** mM
Body Wt. Change (%) 48 hr. vs. Baseline, Mean [2, 7]: −5.1*** %
Delta Blood Glucose (mM) Mean [2, 7]: −7.9*** mM
Delta Blood Glucose (mM) Mean ([2]; Study 2, db/db mice, 10 nM/kg s.c. single dose, 72 hr): −4.3** mM
Body Wt. Change (%) 96 hr. vs. Baseline, Mean [2, 8]: −3.5*** %
Delta Blood Glucose (mM) Mean [2, 8]: -1.4 mM
effect on blood glucose reduction compared with tirzepatide ([2]; db/db mice, 10 nM/kg s.c., same concentration as tirzepatide): superior to tirzepatide
blood glucose reduction [2, 9]: statistically significant blood glucose reduction upto 96 hr post treatment
body weight reduction [2, 9]: statistically significant body weight reduction which was comparable to tirzepatide
reduction in food consumption [2, 9]: significant reduction in food consumption which was comparable to tirzepatide

Tirzepatide [reference compound]
Cumulative Food Intake (g), 0-72 hr, Mean ([1]; 3 nM/kg s.c.): 9.6*** g
Body weight change (%) 72 hr vs. Baseline, Mean ([1]; 3 nM/kg s.c., 72 hr): −3.4*** %
Cumulative Food Intake (g), 0-72 hr, Mean ([1]; 20 nM/kg s.c.): 8.4*** g
Body weight change (%) 72 hr vs. Baseline, Mean ([1]; 20 nM/kg s.c., 72 hr): −4.9*** %
Cumulative food Intake (g) 0-48 hr. vs. Baseline, Mean [2, 3]: 4.9*** g
Cumulative food Intake (g) 0-96 hr. vs. Baseline, Mean [2, 3]: 13.0*** g
Body Wt. Change (%) 48 hr. vs. Baseline, Mean [2, 4]: −4.2*** %
Body Wt. Change (%) 96 hr. vs. Baseline, Mean [2, 5]: −2.8*** %
